Measurements published in patent US10669289B2, “Boronic acid derivatives” (MERCK PATENT GMBH, priority 2014, dated 2020).
pIC50: −log10 of the molar value.

How the values were obtained:
[1] = molecular target: human immuno proteasome (LMP7) (Homo sapiens (Human), UniProt P28062); experiment: Determination of LMP7 activity (fluorescence intensity assay, Suc-LLVY-AMC); type: biochemical
Description: Determination of LMP7 Activity:
Measurement of LMP7 inhibition is performed in 384 well format based on fluorescence intensity assay.
(§1) Purified human immuno proteasome (0.25 nM) and serial diluted compounds in DMSO (range of concentrations from 30 μM to 15 pM) or controls are incubated for 20 minutes or 120 minutes (long incubation) at 25° C. in assay buffer containing 50 mM Tris pH 7.4, 0.03% SDS, 1 mM EDTA and 1% DMSO. The reaction is initiated by the addition of the fluorogenic peptide substrate, Suc-LLVY-AMC (Bachem 1-1395), at a concentration of 40 μM. After 60 minutes of incubation at 37° C., fluorescence intensity is measured at λex=350 nm and λem=450 nm with a fluorescence reader (Perkin Elmer Envision reader or equivalent).
(§2) Unless indicated otherwise the results are obtained after incubation for 20 minutes.

[2] = molecular target: human constitutive proteasome (Beta5) (Homo sapiens (Human), UniProt P28074); experiment: Determination of Beta5 activity (fluorescence intensity assay, Suc-LLVY-AMC); type: biochemical
Description: Determination of Beta5 Activity:
Measurement of Beta5 inhibition is performed in 384 well format based on fluorescence intensity assay.
as §1, with “constitutive” for “immuno”, “(1.25” for “(0.25”
as §2

[3] = LMP7 versus Beta5, long incubation (120 min)
[4] = LMP7 versus Beta5, incubation for 20 minutes

| Selectivity LMP7 vs Beta5 [1, 3] | pIC50 ([1]; long incubation (120 min)) | pIC50 ([2]; long incubation (120 min)) | Selectivity LMP7 vs Beta5 [1, 4] | pIC50 ([1]; incubation for 20 minutes) | pIC50 ([2]; incubation for 20 minutes) | SMILES |
| --- | --- | --- | --- | --- | --- | --- |
| +++++ (Selectivity ≥ 150) | > 7.30 | 5.30 to 6.30 | – | – | – | C=CC(=O)N(CC(=O)N[C@@H](C[C@@H]1COc2ccccc21)B(O)O)c1ccccc1F [Compound No. 100, [(1R)-2-[(3S)-2,3-dihydrobenzofuran-3-yl]-1-[[2-(2-fluoro-N-prop-2-enoyl-anilino)acetyl]amino]ethyl]boronic Acid] |
| – | – | – | +++++ (Selectivity ≥ 150) | > 7.30 | 5.30 to 6.30 | C=CC(=O)N(CC(=O)N[C@@H](Cc1ccc(C)cc1C)B(O)O)c1ccccc1 [Compound No. 26, [(1R)-2-(2,4-dimethylphenyl)-1-[[2-(N-prop-2-enoylanilino)acetyl]-amino]ethyl]boronic Acid] |
| +++++ (Selectivity ≥ 150) | > 7.30 | < 5.30 | – | – | – | C=CC(=O)N(CC)CC(=O)N[C@@H](Cc1ccc2ccccc2c1)B(O)O [Compound No. 81, [(1R)-1-[[2-[ethyl(prop-2-enoyl)amino]acetyl]amino]-2-(2-naphthyl)ethyl]boronic Acid] |
| +++++ (Selectivity ≥ 150) | – | 5.30 to 6.30 | – | – | – | C=CC(=O)N(CC(=O)N[C@@H](Cc1ccc(Cl)c(Cl)c1)B(O)O)C1CC1 [Compound No. 69, [(1R)-1-[[2-[cyclopropyl(prop-2-enoyl)amino]acetyl]amino]-2-(3,4-dichlorophenyl)ethyl]boronic Acid] |
| – | – | – | + (Selectivity < 50) | 6.30 to 7.30 | < 5.30 | C=CC(=O)N(CC(=O)N[C@@H](Cc1ccccc1)B(O)O)C(C)C [Compound No. 35, [(1R)-1-[[2-[isopropyl(prop-2-enoyl)amino]acetyl]amino]-2-phenyl-ethyl]boronic Acid] |
| – | – | – | +++++ (Selectivity ≥ 150) | 6.30 to 7.30 | < 5.30 | C=CC(=O)N(CC)CC(=O)N[C@@H](Cc1ccc(C)c(C)c1)B(O)O [Compound No. 14, [(1R)-2-(3,4-dimethylphenyl)-1-[[2-[ethyl(prop-2-enoyl)amino]acetyl]-amino]-ethyl]boronic Acid] |
| – | – | – | +++ (70 ≤ 100) | 6.30 to 7.30 | < 5.30 | C=CC(=O)N(CC)CC(=O)N[C@@H](Cc1ccc(F)cc1)B(O)O [Compound No. 30, [(1R)-1-[[2-[ethyl(prop-2-enoyl)amino]acetyl]amino]-2-(4-fluorophenyl)ethyl]boronic Acid] |
| +++++ (Selectivity ≥ 150) | > 7.30 | < 5.30 | – | – | – | C=CC(=O)N(CC(=O)N[C@@H](Cc1ccc(C)cc1C)B(O)O)c1cc(F)ccc1F [Compound No. 42, [(1R)-1-[[2-(2,5-difluoro-N-prop-2-enoyl-anilino)acetyl]amino]-2-(2,4-dimethylphenyl)ethyl]boronic Acid] |
| +++++ (Selectivity ≥ 150) | > 7.30 | < 5.30 | – | – | – | C=CC(=O)N(C)CC(=O)N[C@@H](Cc1ccc(Cl)c(Cl)c1)B(O)O [Compound No. 66, [(1R)-2-(3,4-dichlorophenyl)-1-[[2-[methyl(prop-2-enoyl)amino]acetyl]amino]ethyl]boronic Acid] |
| +++++ (Selectivity ≥ 150) | > 7.30 | < 5.30 | – | – | – | C=CC(=O)N(CC(=O)N[C@@H](Cc1ccc(C)cc1C)B(O)O)c1cccc(F)c1F [Compound No. 41, [(1R)-1-[[2-(2,3-difluoro-N-prop-2-enoyl-anilino)acetyl]amino]-2-(2,4-dimethylphenyl)ethyl]boronic Acid] |
| – | – | – | +++++ (Selectivity ≥ 150) | 6.30 to 7.30 | < 5.30 | C=CC(=O)N(CC(=O)N[C@@H](C[C@H]1COc2c(C)cccc21)B(O)O)c1ccccc1F [Compound No. 91, [(1R)-1-[[2-(2-fluoro-N-prop-2-enoyl-anilino)acetyl]amino]-2-[(3R)-7-methyl-2,3-dihydrobenzofuran-3-yl]ethyl]boronic Acid] |
| +++++ (Selectivity ≥ 150) | > 7.30 | 5.30 to 6.30 | – | – | – | C=CC(=O)N(C)CC(=O)N[C@@H](Cc1ccc2ccccc2c1)B(O)O [Compound No. 82, [(1R)-1-[[2-[methyl(prop-2-enoyl)amino]acetyl]amino]-2-(2-naphthyl)ethyl]boronic Acid] |
| – | – | – | +++ (70 ≤ 100) | 6.30 to 7.30 | < 5.30 | C=CC(=O)N(CC(=O)N[C@@H](Cc1ccc(C)cc1C)B(O)O)C(C)C [Compound No. 27, [(1R)-2-(2,4-dimethylphenyl)-1-[[2-[isopropyl(prop-2-enoyl)amino]-acetyl]amino]ethyl]boronic Acid] |
| – | – | – | + (Selectivity < 50) | > 7.30 | 5.30 to 6.30 | CC#CC(=O)N(C)CC(=O)N[C@@H](Cc1ccc(C)cc1C)B(O)O [Compound No. 20, [(1R)-1-[[2-[but-2-ynoyl(methyl)amino]acetyl]amino]-2-(2,4-dimethylphenyl)ethyl]boronic Acid] |
| ++ (50 ≤ Selectivity < 70) | 5.30 to 6.30 | < 5.30 | – | – | – | C=CC(=O)N(C)[C@H](C)C(=O)N[C@@H](Cc1ccc(C)cc1C)B(O)O [Compound No. 52, [(1R)-2-(2,4-dimethylphenyl)-1-[[(2R)-2-[methyl(prop-2-enoyl)amino]propanoyl]amino]ethyl]boronic Acid] |
| +++++ (Selectivity ≥ 150) | > 7.30 | 5.30 to 6.30 | – | – | – | C=CC(=O)N(CC(=O)N[C@@H](Cc1ccsc1)B(O)O)c1ccc(CC)cc1 [Compound No. 96, [(1R)-1-[[2-(4-ethyl-N-prop-2-enoyl-anilino)acetyl]amino]-2-(3-thienyl)ethyl]boronic Acid] |
| +++++ (Selectivity ≥ 150) | > 7.30 | 5.30 to 6.30 | – | – | – | C=CC(=O)NCC(=O)N[C@@H](Cc1ccc(C)c(C)c1)B(O)O [Compound No. 88, [(1R)-2-(3,4-dimethylphenyl)-1-[[2-(prop-2-enoylamino)acetyl]amino]ethyl]boronic Acid] |
| +++++ (Selectivity ≥ 150) | > 7.30 | < 5.30 | – | – | – | C=CC(=O)N(CC(=O)N[C@@H](Cc1ccsc1)B(O)O)c1ccccc1 [Compound No. 92, [(1R)-1-[[2-(N-prop-2-enoylanilino)acetyl]amino]-2-(3-thienyl)ethyl]boronic Acid] |
| +++++ (Selectivity ≥ 150) | > 7.30 | < 5.30 | – | – | – | C=CC(=O)N(CC(=O)N[C@@H](Cc1ccc(C)c(C)c1)B(O)O)C1CC1 [Compound No. 71, [(1R)-1-[[2-[cyclopropyl(prop-2-enoyl)amino]acetyl]amino]-2-(3,4-dimethylphenyl)ethyl]boronic Acid] |
| +++++ (Selectivity ≥ 150) | > 7.30 | < 5.30 | – | – | – | C=CC(=O)N(CC(=O)N[C@@H](Cc1ccc(C)c(C)c1)B(O)O)CC(F)(F)F [Compound No. 61, [(1R)-2-(3,4-dimethylphenyl)-1-[[2-[prop-2-enoyl(2,2,2-trifluoroethyl)amino]acetyl]amino]ethyl]boronic Acid] |
| +++++ (Selectivity ≥ 150) | 6.30 to 7.30 | < 5.30 | – | – | – | C=CC(=O)N(C)CC(=O)N[C@@H](Cc1cccc2ccccc12)B(O)O [Compound No. 80, [(1R)-1-[[2-[methyl(prop-2-enoyl)amino]acetyl]amino]-2-(1-naphthyl)ethyl]boronic Acid] |
| +++++ (Selectivity ≥ 150) | > 7.30 | < 5.30 | – | – | – | C=CC(=O)N(C)CC(=O)N[C@@H](Cc1ccc(C)c(C)c1C)B(O)O [Compound No. 74, [(1R)-1-[[2-[methyl(prop-2-enoyl)amino]acetyl]amino]-2-(2,3,4-trimethylphenyl)ethyl]boronic Acid] |
| +++++ (Selectivity ≥ 150) | > 7.30 | < 5.30 | – | – | – | C=CC(=O)N(CC(=O)N[C@@H](Cc1ccsc1)B(O)O)c1ccccc1F [Compound No. 78, [(1R)-1-[[2-(2-fluoro-N-prop-2-enoyl-anilino)acetyl]amino]-2-(3-thienyl)ethyl]boronic Acid] |
| +++++ (Selectivity ≥ 150) | 6.30 to 7.30 | < 5.30 | – | – | – | C=CC(=O)N(CC(=O)N[C@@H](Cc1ccc(C)cc1C)B(O)O)CC(F)(F)F [Compound No. 57, [(1R)-2-(2,4-dimethylphenyl)-1-[[2-[prop-2-enoyl(2,2,2-trifluoroethyl)amino]acetyl]amino]ethyl]boronic Acid] |
| +++++ (Selectivity ≥ 150) | > 7.30 | < 5.30 | – | – | – | CCN(CC(=O)N[C@@H](Cc1ccc(C)cc1C)B(O)O)C(=O)/C=C/CN(C)C [Compound No. 105, [(1R)-1-[[2-[[(E)-4-(dimethylamino)but-2-enoyl]-ethyl-amino]-acetyl]amino]-2-(2,4-dimethylphenyl)ethyl]boronic Acid] |
